# From patent US20060135510A1 (The Trustees of the University of Pennsylvania, priority 2004, published 2006)
# What was measured:
# A549 = assay: Clonogenic assay, radiation sensitization of A549 cells; type: cell-based; conditions: control SF2 0.570 +/− 0.042
# Description: (§1) Cultures of cells in log growth phase were counted and plated in 60-mm dishes containing 4 ml of media. […] Cells were irradiated with a Mark I cesium irradiator (J. L. Shepherd, San Fernando, Calif.) at a dose rate of 1.6 Gy/min. Colonies were stained and counted 10-14 days after irradiation. A light box was used to assist in counting colonies. The surviving fraction was calculated by dividing the number of colonies formed by the number of cells plated times plating efficiency (Table 1). Each point value represents the mean surviving fraction from at least six replicate dishes.
# MIAPACA2 = assay: Clonogenic assay, radiation sensitization of MIAPACA2 cells; type: cell-based; conditions: control SF2 0.906 +/− 0.086
# Description: as §1
# SQ20B cells = assay: Clonogenic assay, radiosensitization of SQ20B cells; type: cell-based, human
# Description: Cultures in log growth phase were counted and plated in 60-mm dishes containing 4 ml of media. The cells were allowed to attach and inhibitors were added to cultures at least one hour prior to radiation. Cells were irradiated with a Mark I cesium irradiator (J. L. Shepherd, San Fernando, Calif.) at a dose rate of 1.6 Gy/min. Colonies were stained and counted 10-14 days after irradiation. Typically, at least 6 dishes are prepared at each dose level of radiation.
# as §1
# SQ20B xenograft tumors = assay: In vivo to in vitro clonogenic assay in nude mice with SQ20B tumors; parameters: species or system mouse; conditions: osmotic pump placed 2 days prior, 8 Gy, FIG. 11
# Description: The mice in the study had SQ20B xenograft tumors on a hind leg. The pump was placed into the mouse 2 days prior to experiment. On the day of the experiment, the mouse was anesthetized and irradiated to 8 Gy. The tumor was then harvested and a cell suspension made. The cells were plated and the plating efficiency determined to indicate the number of cells that were viable and able to reproduce by forming colonies in each individual group (plating efficiency).
# FIG. 8 illustrates the results of an in vivo to in vitro clonogenic assay in nude mice with SQ20B tumors.
# T24 = assay: Clonogenic assay, radiation sensitization of T24 cells; type: cell-based, human; conditions: control SF2 0.560 +/− 0.061
# Description: as §1
# [1] = dose of about 1200 mg bid; cited from earlier work
# [2] = Amprenavir by pump + 8 Gy vs 8 Gy alone, right hind leg
# Akt = assay: Western blot analysis of Akt phosphorylation in SQ20B cells; type: cell-based, human
# Description: Using Western blot analysis, a human head-and-neck cancer cell line, SQ20B, (American Type Culture Collection; Manassas, Va.) containing a constitutively-active EGFR receptor and thus, increased signaling through PI3K, was examined for Akt phosphorylation.
# Cells were lysed without trypsinization by rinsing culture dishes once with PBS followed by lysis with reducing Laemeli sample buffer. Samples were boiled, sheared, and clarified by centrifugation and stored at −20° C. […] Membranes were blocked in PBS containing 0.1% Tween-20 and 5% powdered milk before primary antibody addition. The dilution of the primary antibody was 1:2000. Antibody binding was detected using the ECL chemiluminescence kit (Amersham, Arlington Heights, Ill.). Images were digitized using an Arcus II scanner, and figures were assembled using Adobe Photoshop 3.0 and Microsoft Power Point programs.
# REF = assay: Clonogenic assay, radiation sensitization of REF cells; type: cell-based; conditions: control SF2 0.408 +/− 0.040
# Description: as §1
smiles,measurement,setting,value
"CC(C)CN(C[C@@H](O)[C@H](Cc1ccccc1)NC(=O)O[C@H]1CCOC1)S(=O)(=O)c1ccc(N)cc1 [Amprenavir, amprenavir]",Amprenavir SF2,A549,0.487 +/− 0.030
same,Amprenavir SF2,MIAPACA2,0.664 +/− 0.051
same,survival difference in cell kill numbers,"SQ20B cells; 30 fractions of 2 Gy, SF2 0.51 vs 0.7",~4 log
same,surviving fraction after 2 Gy (SF2),"SQ20B cells; SQ20B cells, 5 μM Amprenavir + 2 Gy radiation, control 70% (FIG. 6)",51%
same,Amprenavir SF2,"SQ20B cells; SQ20B, control SF2 0.691 +/− 0.042",0.432 +/− 0.017
same,survival value after 30 fractions of 2 Gy,"SQ20B cells; calculated from SF2 0.51, without drug 2.25×10^−5",1.68×10^−9
same,"cell kill, combination of radiation and Amprenavir","SQ20B cells; clonogenic assay in vitro, FIG. 7",increase cell kill
same,"cell kill, combination of radiation and Amprenavir",SQ20B xenograft tumors,significant increase in cell kill
same,Amprenavir SF2,T24,0.370 +/− 0.022
same,peak plasma concentration,[1],15.1 µM
same,trough plasma concentration,[1],0.63 µM
same,leg contracture or fibrosis,[2],No differences
same,signaling in the Ras pathway,"Akt; FIG. 4, SQ20b cells and T24 cells",inhibits
same,phosphorylation of Akt at Ser 473,"Akt; SQ20B cells, 10 μM Amprenavir, Western blot",down-regulation
same,phosphorylation of Akt at the Thr 308 site,"Akt; SQ20B cells, 10 μM or 20 μM Amprenavir",no change
same,phosphorylation of Akt at Ser 473,"Akt; SQ20B cells, 20 μM Amprenavir, Western blot (FIG. 3 and FIG. 5)",abolished
same,Amprenavir SF2,REF,0.402 +/− 0.136
